Experiments:
Assay type in all cases: biochemical
[1] = target: T1, Coprinus cinereus laccase (Coprinopsis cinerea, UniProt Q9Y780); experiment: Bleaching of Direct Blue 1 using Coprinus cinereus laccase with/without enhancing agents at pH 5.5-8.5; settings: C. cinereus laccase 1 mg/l, 10 μM enhancing agent, 30° C.
T1 sequence (Q9Y780 19-539): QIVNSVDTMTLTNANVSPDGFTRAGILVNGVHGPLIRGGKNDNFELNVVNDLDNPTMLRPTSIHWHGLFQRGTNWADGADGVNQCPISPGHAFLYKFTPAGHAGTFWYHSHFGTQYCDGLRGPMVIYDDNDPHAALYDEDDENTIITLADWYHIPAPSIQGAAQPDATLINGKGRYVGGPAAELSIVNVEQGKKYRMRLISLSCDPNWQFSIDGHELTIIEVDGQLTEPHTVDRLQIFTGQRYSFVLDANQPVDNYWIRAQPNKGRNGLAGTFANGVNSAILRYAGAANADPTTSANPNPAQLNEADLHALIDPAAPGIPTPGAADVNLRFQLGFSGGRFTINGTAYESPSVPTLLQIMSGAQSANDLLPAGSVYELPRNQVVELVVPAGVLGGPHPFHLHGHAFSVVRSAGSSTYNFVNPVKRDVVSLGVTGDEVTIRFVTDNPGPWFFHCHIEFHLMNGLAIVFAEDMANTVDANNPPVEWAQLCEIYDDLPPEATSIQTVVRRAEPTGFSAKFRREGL
Procedure: Bleaching of the dye Direct Blue 1 at various pH values was conducted using Coprinus cinereus laccase and one of the following enhancing agents:
The laccase was obtained in the following way: Coprinus cinereus (IFO 30116--freely available to the public from Institute of Fermentation, Osaka (IFO) under the indicated deposit number) was inoculated from a PDA agar slant (PDA: 39 g/l potato dextrose agar) into a 100 ml shake flask containing medium A (Medium A is described in Example 3). The culture was cultivated for 6 days at 26° C. and 100 rpm. A 10-liter fermentor containing medium A was inoculated with the 100 ml culture broth. The fermentation ran for 6 days at 26° C. and 100 rpm. The culture broth was filtrated and concentrated by ultrafiltration. Further purification was carried out using hydrophobic interaction chromatography followed by anionic exchange chromatography. This process resultated in a preparation with a laccase activity of 3.6 LACU/ml. The estimated purity was >80% on a protein basis.
The bleaching rate of DB1 was determined using the owing conditions: […]
Reagents were mixed in a 1 ml thermostated cuvette at 30° C. and the bleaching was started by addition of the laccase.
The bleaching was followed spectrophotometrically at 610 nm, which is the wavelength of the absorption peak of DB1 with readings every 5 sec. for a period of 5 minutes. The initial bleaching rate was determined from the first linear part of the absorbance curve.

[2] = target: T2, Coprinus cinereus peroxidase (CiP) (Coprinopsis cinerea, UniProt P28314); experiment: Initial bleaching of Direct Blue 1 with Coprinus cinereus peroxidase and enhancers; settings: 5 μM enhancer, 20 μM H2O2, 30° C.
T2 construct: made in house
T2 sequence (P28314 21-363): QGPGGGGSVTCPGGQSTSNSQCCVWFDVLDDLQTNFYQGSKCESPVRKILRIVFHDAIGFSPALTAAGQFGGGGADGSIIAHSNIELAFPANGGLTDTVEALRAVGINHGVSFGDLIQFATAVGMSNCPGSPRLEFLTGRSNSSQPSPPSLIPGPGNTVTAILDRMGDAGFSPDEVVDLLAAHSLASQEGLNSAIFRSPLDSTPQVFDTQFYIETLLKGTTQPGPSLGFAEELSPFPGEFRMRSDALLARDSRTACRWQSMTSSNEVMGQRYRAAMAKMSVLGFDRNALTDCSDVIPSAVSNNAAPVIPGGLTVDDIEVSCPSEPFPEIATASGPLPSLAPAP
Procedure: A Coprinus cinereus peroxidase (CiP), obtained as described in WO 9412621 was used.
Dilutions of CiP were made in a solution of 0.15 gram/l of Triton X-405.
The bleaching rate of Direct Blue 1 (DB1) by purified CiP was determined using the following conditions: […]
Reagents were mixed in a thermostated cuvette at 30° C. and the bleaching was started by addition of hydrogen peroxide. The bleaching was detected spectrophotometrically at 610 nm, which is the wavelength of the absorption peak of DB1. Bleaching was followed for 1 minute, and the initial reduction in absorbance, --ΔmAbs/minute, was determined.

[3] = target: T3, Trametes villosa laccase (Trametes villosa, UniProt Q99044); experiment: Bleaching of Direct Blue 1 with Trametes villosa laccase with and without enhancing agents; settings: 10 μM enhancer, 30° C.
T3 construct: made in house; host or cells: Trametes villosa CBS 678.70 (native producer), purified from culture broth
T3 sequence (Q99044 22-520): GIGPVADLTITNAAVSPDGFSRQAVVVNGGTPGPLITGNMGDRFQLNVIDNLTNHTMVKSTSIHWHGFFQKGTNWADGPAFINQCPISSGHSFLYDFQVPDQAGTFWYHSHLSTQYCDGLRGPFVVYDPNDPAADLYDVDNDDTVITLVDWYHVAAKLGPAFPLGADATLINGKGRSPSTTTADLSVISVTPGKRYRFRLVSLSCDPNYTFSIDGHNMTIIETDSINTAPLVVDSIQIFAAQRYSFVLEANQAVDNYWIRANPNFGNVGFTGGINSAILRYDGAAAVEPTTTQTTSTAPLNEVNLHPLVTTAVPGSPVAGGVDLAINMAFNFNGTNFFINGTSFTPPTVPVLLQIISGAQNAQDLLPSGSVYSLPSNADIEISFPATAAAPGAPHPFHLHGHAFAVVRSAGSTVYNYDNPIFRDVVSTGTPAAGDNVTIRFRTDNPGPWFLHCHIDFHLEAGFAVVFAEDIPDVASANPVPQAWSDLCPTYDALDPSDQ
Procedure: Laccase obtained from Trametes villosa: 800 ml culture broth of Trametes villosa, CBS 678.70, was filtered with filter aid to give a clear filtrate, which was concentrated and washed by ultrafiltration on a membrane with a cut-off of 6-8 kDa. One ml samples of concentrated preparation was applied onto a Q-Sepharose HP column (Pharmacia, Sweden) equilibrated with 0.1 M fosfate pH 7, and the laccase was eluted with a flat NaCl gradient around 0.25 M. Fractions with laccase activity from 10 runs were pooled and concentrated by ultrafiltration to an activity of 500 LACU/ml.
The following conditions were used: […]
Reagents were mixed in a 1 cm thermostated cuvette at 30° C. and the bleaching was started by addition of enzyme.
The bleaching was detected spectrophotometrically at 610 nm, which is the absorption peak of DB1. After 5 sec. bleaching was followed for 4 minutes.
Bleaching of Direct Blue 1 with Trametes villosa laccase, obtained as described above, at pH 5.5 (1.6 mg/l) and pH 7.0 (16 mg/l): […]

[4] = target: T1, Coprinus cinereus laccase; experiment: Bleaching of gradually added Acid Blue 45 with Coprinus cinereus laccase with and without enhancing agent; settings: phosphate/borate buffer pH 10; 35° C.; laccase 10 mg/l; acetosyringone 10 μM
Procedure: To simulate such a process, however, a magnetically stirred beaker was used as the reaction vessel and dye was added gradually from a stock solution (using a Metrohm 725 dosimat). The solution was monitored spectrophotometrically using a Zeiss multichannel spectrometer (MCS) equipped with a fibre-optics immersion probe.
Stock solutions of acetosyringone was prepared in a suitable water/ethanol mixture. Stock solutions of the anthraquinone dye Acid Blue 45 were made with water.
The laccase was recovered from a 10-liter fermentation of Coprinus cinereus (IFO 30116) as described in Example 4.
The following conditions were used in the experiment:
Medium and pH: […]/50 mM phosphate/borate buffer at pH 10
Acetosyringone (when applicable): 10 μM
Dye addition program: linear addition at a rate of ca 0.34 bs/40 min, referring to the absorbance of Acid Blue 45 at its maximum absorbance wavelength (590 nm for Acid Blue 45).
The following symbols are used: (I): Only dye addition; (II): Dye addition in the presence of Laccase; (III): Dye addition in the presence of Laccase+acetosyringone.

Initial bleaching rate of DB1 ([1]; pH 5.5): 28 -ΔmAbs/minute
Initial bleaching rate of DB1 ([1]; pH 7.0): 94 -ΔmAbs/minute
Initial bleaching rate of DB1 ([1]; pH 8.5): 50 -ΔmAbs/minute
Initial Bleaching of Direct Blue 1 with CiP ([2]; pH 8.5, 0.08 mg/l CiP): 239 -ΔmAbs/minute
Initial Bleaching of Direct Blue 1 with CiP ([2]; pH 10.5, 0.16 mg/l CiP): 1 -ΔmAbs/minute
DB1 bleaching in 4 minutes ([3]; pH 5.5, Trametes villosa laccase 1.6 mg/l): 447 -ΔmAbs/4 min
DB1 bleaching in 4 minutes ([3]; pH 7.0, Trametes villosa laccase 16 mg/l): 242 -ΔmAbs/4 min
Bleaching effect on gradually added Acid Blue 45 (FIG. 1) [4]: enhanced
SMILES: COc1cc(C(C)=O)cc(OC)c1O [acetosyringone]
